Test results taken from US20190105194A1, “METHODS OF TREATING A SUBJECT WITH AN OCULAR CONDITION RESPONSIVE TO STEROID THERAPY” (Aciont Inc., priority 2017, published 2019).
Where “and” joins values, the source holds several entries; their conditions need not be identical. Identical values can stand only once. Like-named read-outs stand apart in the source and are kept apart here.

How the values were obtained:
[1] = in vivo
Description: (§1) For the toxicokinetic study, there were four groups of rabbit. […] Blood was collected and processed for plasma at predose, 5, 30, 60, 120, 240, and 360 minutes, and 24, 48, 72, 96, and 168 hours after administration.
(§2) Approximately 1 mL of blood was collected by direct venipuncture of the jugular vein with a 3 mL syringe and 21 GA×1″ needle. Blood was immediately transferred into anticoagulant (potassium EDTA) coated microcentrifuge tubes. Blood was then centrifuged for five minutes at 3000×G at 4° C. Plasma was immediately separated into another microcentrifuge tube then kept in −20° C. freezer for LC-MS analysis.
(§3) Briefly, the samples were assayed by Shimadzu SCL-10A controller with LC-10AD pump. The mobile phase was 50% by volume of 10 mM ammonium acetate and 50% by volume of methanol. The HPLC column was a)(Bridge Phenyl column, 5 μm, 50×2.0 mm. An isocratic elution was applied at 0.500 mL/min flow rate and column temperature was 30° C. […] The injection volume was 10 μL. […] The limit of quantitation (LOQ) of this method was 1 ng/mL.
(§4) Toxicokinetic data analysis was based on standard noncompartmental pharmacokinetic methods. […] The maximum observed plasma concentration (Cmax) was determined by visual estimation from the data plot. Area under the plasma concentration vs. time curve from 0 to the time of the last measurable concentration (AUC) was calculated by the linear trapezoidal method. Elimination half-life (t1/2) was calculated as ln(2)/ke, where ke is the elimination rate constant determined by linear regression of the last three analytically measured points on the plasma concentration vs. time curve.

[2] = tested on: rabbit coronary microvessel endothelium; settings: cited from earlier work
[3] = tested on: New Zealand White (NZW) rabbits; settings: rabbit, in vivo
Description: This procedure was repeated 24 hours later with the shorter application duration of 5 minutes.
Eight (4 male and 4 female) NZW rabbits, 5-6 months old, were assigned to two groups according to the following study design:

[4] = in vivo; settings: rabbit
Description: as §1, §2, §3, §4

[5] = tested on: New Zealand White rabbits; settings: rabbit, in vivo
Description: For the ocular toxicity study, there were four groups. […] The total exposure was 12 doses over the period of 12 weeks. Clinical observations were performed on weekdays, and before and after each dosing. Following the final observations (i.e., one week after the last dose), the rabbits were sacrificed and the eyes were processed for histological evaluation.
One drop of sterile proparacaine hydrochloride (a local anesthetic) was put on the eye (to be treated) 5 minutes before dose administration. […] The position of the device was checked to ensure that the active agent matrix was in immediate contact with the white part of the eye but not the cornea. Digital timers were used for accurate application times (i.e., 5, 10, or 20 minutes). After the given application duration, the applicator was carefully removed from the eye.
All animals (both left and right eyes) were examined by indirect ophthalmoscopy of the cornea, conjunctiva, anterior chamber, vitreous, posterior chamber, and sclera. One to two drops each of phenylephrine hydrochloride and cyclopentolate hydrochloride were used as mydriatics. Observations on the anterior and posterior segments of the eye were made, graded, and recorded. A modified McDonald-Shadduck scale was used for grading eye irritation and ocular toxicity.
The histopathological processing and evaluation were conducted at Colorado Histo-Prep (Fort Collins, Colo.). Briefly, a central cut of the eye globe was taken, as well as two cuts on either side of the central cut (calottes) at trim. For each eye, the central cut was placed into one cassette, and the two calottes were placed together into a separate cassette. The tissues were processed, embedded in paraffin wax, sectioned by microtome, and stained. Histopathology of the tissues was conducted on slides stained with hematoxylin and eosin. A pathologist who evaluated the tissues had no knowledge of the specific pharmacologic activity or formulation of the test articles. Standardized toxicological pathology criteria and nomenclature for the rabbit were used to categorize microscopic tissue changes.

[6] = human, in vivo, 1 mg; cited from earlier work
[7] = tested on: New Zealand White rabbits; settings: rabbit, in vivo; remark: listed apart in the source
Description: Thirty six New Zealand White rabbits between 5 and 6 months of age were used for this study. […] Each group contained 12 rabbits, 6 males and 6 females. Rabbits were dosed in their right eye on study days 1, 2, 8, 15, 22 and 29 using a trans-scleral application system. Dosing was accomplished by filling the system with the appropriate test or control article and placing the applicator in full contact with the sclera of the right eye for 5 minutes. The contralateral eye served as an untreated control. Intraocular pressure (IOP) was measured via rebound tonometry in both eyes prior to dosing and within 5 minutes thereafter on days 1, 15 and 29. IOP was also measured the day after dosing on days 16 and 30 and in the recovery animals on day 43.

[8] = rabbit, in vivo, 1 mg; cited from earlier work

For C[C@@H]1C[C@H]2[C@@H]3CCC4=CC(=O)C=C[C@]4(C)[C@@]3(F)[C@@H](O)C[C@]2(C)[C@@]1(O)C(=O)CO [DEX, dexamethasone], the “Tmax of DEX in plasma” value ([1]; rabbit) is listed as 30 min and the “concentration that can inhibit prostaglandin release” value [2] is listed as 10^−7 M and ~40 ng/mL.
For C[C@@H]1C[C@H]2[C@@H]3CCC4=CC(=O)C=C[C@]4(C)[C@@]3(F)[C@@H](O)C[C@]2(C)[C@@]1(O)C(=O)COP(=O)(O)O [DSP, dexamethasone sodium phosphate], the “IOP increase (mild effect)” value ([3]; both, New Zealand White) was 5-8 mmHg, the “IOP increase (absolute value) compared to control eye change, immediately after application” value ([3]; male, New Zealand White) was 2 mmHg and the “IOP increase (absolute value) compared to control eye change, immediately after treatment” value ([3]; male, New Zealand White) was 8 mmHg. For the same compound, the “change in IOP within one hour after treatment” value ([3]; male, New Zealand White) was 4 mmHg, the “effect on the IOP of the treated eye (statistical analysis)” value [3] was “no effect” and the “time for IOP to return to a normal range after treatment” value [3] was “within one half hour”. The “time for IOP to return to below baseline after treatment” value [3] was “within one half hour”, the “time for IOP to return to normal after treatment” value [3] was “within one half hour” and the Tmax [4] was 5 min. The “corneal surface covered by corneal haze lesion” value ([5]; New Zealand White, 4 weeks) was “about 40%”, the “typical conjunctival injection score immediately after treatment” value ([5]; New Zealand White, 12 weeks) was 1 or <1 and the “Ocular Histopathology” value [5] was “NSF”. The histopathology finding [5] was “mild chronic inflammation at the limbus of the cornea”, the histopathology of eyes [5] was “morphologically normal” and the “nature of ocular findings (conjunctival injection, discharge, corneal haze) in treated eyes” value [5] was “transient and mild in nature”. The “Cmax after IV injection” value [6] was 10.5 ng/mL, the “IOP effects related to dosing” value [7] was “no IOP effects related to dosing” and the “Cmax after IV injection” value [8] was 786 ng/mL. For the same compound, the “half-life of the drug in the rabbit” value [1] was 120 to 180 min.
